Laboratory results published in patent USRE46511E1, “Fused pyrimidine derivatives for inhibition of tyrosine kinase activity” (HANMI SCIENCE CO., LTD., priority 2010, dated 2017).
Read-outs that look alike come from different tables or passages of the source.

Columns and labels:
BTK = molecular target: T1, BTK (Homo sapiens, UniProt Q06187); assay: z-lyte kinase assay, BTK; assay type: biochemical
T1 construct: purchased Invitrogen
Protocol: (§1) The inhibiting activities of the inventive compounds obtained in Examples 1 to 237 against EGFR WT and EGFR L858R/T790M kinase were determined using z-lyte kinase assay kit (Invitrogen, PV3191). The kinases used in the test were purchased from Invitrogen.
(§2) The compounds obtained in Examples 1 to 237 were each prepared to 10 mM DMSO solution, and a solution containing 4% DMSO were prepared therefrom and diluted to a concentration of 1 μM to 0.0001 μM. […] The test was conducted in a 384 well polystyrene flat-bottomed plates. 5 μl of the diluted solution of each compound was added to each well, and 10 μl of a mixture of peptide substrate and kinase in a suitable concentration and 5 μl of 5˜300 μM ATP solution were successively added thereto and the plate was incubated in a stirrer at room temperature for 60 minutes. After 60 mins, 10 μl of coloring reagent was added to the resulting mixture to initiate a fluorescence reaction of peptide substrate and a terminating solution was added thereto for terminating the reaction. A fluorescence value of each well was determined with a fluorescence meter (Molecular Device) at 400 nm (excitation filter) and 520 nm (emission filter). […] The calculation of IC50 and the result analysis were carried out by using Microsoft Excel.
(§3) The inhibiting activities of the inventive compounds obtained in Examples 1 to 237 against BTK and JAK3 kinases were determined, respectively. The procedure of Test Example 2 was repeated except that BTK and JAK3 kinases (Invitrogen) were employed instead of using the EGFR kinase.

[1] = tested on: HCC827 (EGFR DelE746_A750); assay: Inhibition test for growth of cancer cell expressing EGFR (SRB), HCC827; assay type: cell-based; settings: HCC827 cells, 72 hours, SRB, read-out: GI50 HCC827 EGFR DelE746_A750;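 further: cells in 96-well plates exposed to tenfold serial dilutions from 100 µM, fixed with trichloroacetic acid, SRB-stained, absorbance read at 540 nm, DMSO under 1%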
[2] = tested on: NCI-H1975 (EGFR L858R/T790M); assay: Inhibition test for growth of cancer cell expressing EGFR (MTS), NCI-H1975; assay type: cell-based; settings: NCI-H1975 cells, 48 hours, MTS, read-out: GI50 NCI-H1975 EGFR L858R/T790M
Protocol: A431 cell line was incubated in a high-glucose DMEM (Dulbecco's Modified Eagle's Medium) supplemented with 10% fetal bovine serum (FBS) and 1% penicillin/streptomycin (Gibco BRL), and HCC827 and NCI-H1975 cell lines were incubated in an RPMI medium supplemented with 10% FBS, 1% penicillin/streptomycin and 1% sodium pyruvate.
The cancer cell lines stored in a liquid nitrogen tank were each quickly thawed at 37° C., and centrifuged to remove the medium. The resulting cell pellet was mixed with a culture medium, incubated in a culture flask at 37° C. under 5% CO2 for 2 to 3 days, and the medium was removed. The remaining cells were washed with DPBS (Dulbecco's Phosphate Buffered Saline) and separated from the flask by using Tripsin-EDTA. […] 100 μl of the diluted cell solution was added to each well of a 96-well plate, and incubated at 37° C. under 5% CO2 for 1 day.
In case that the test compound was not soluble in DMSO, 1% HCl was added thereto and treated in a 40° C. water bath for 30 mins until a complete dissolution was attained. The DMSO solution containing test compound was diluted with a culture medium to a final concentration of 100 μM, and then diluted 10 times serially to 10^−6 μM (a final concentration of DMSO was less than 1%).
The medium was removed from each well of the 96-well plate. And then, 100 μl of a test compound solution was added to each well holding the cultured cells, and the plate was incubated at 37° C. under 5% CO2 for 72 hours (except that NCI-H1975 cells were incubated for 48 hours). After removing the medium from the plate, 50 μA of 10% trichloroacetic acid was added to each well, and the plate was kept at 4° C. for 1 hour to fix the cells to the bottom of the plate. The added 10% trichloroacetic acid solution was removed from each well, the plate was dried, 100 μA of an SRB (Sulforhodamine-B) dye solution at a concentration of 0.4% dissolved in 1% acetic acid was added thereto, and the resulting mixture was reacted for 10 mins at room temperature. After removing the dye solution, the plate was washed with water, and well dried. When the dye solution was not effectively removed by water, 1% acetic acid was used. 150 μA of 10 mM trisma base was added to each well, and the absorbance at 540 nm wavelength was determined with a microplate reader.

JAK3 = molecular target: T2, JAK3 (Homo sapiens, UniProt P52333); assay: z-lyte kinase assay, JAK3; assay type: biochemical
T2 construct: purchased Invitrogen
T2 sequence (P52333 1-1124): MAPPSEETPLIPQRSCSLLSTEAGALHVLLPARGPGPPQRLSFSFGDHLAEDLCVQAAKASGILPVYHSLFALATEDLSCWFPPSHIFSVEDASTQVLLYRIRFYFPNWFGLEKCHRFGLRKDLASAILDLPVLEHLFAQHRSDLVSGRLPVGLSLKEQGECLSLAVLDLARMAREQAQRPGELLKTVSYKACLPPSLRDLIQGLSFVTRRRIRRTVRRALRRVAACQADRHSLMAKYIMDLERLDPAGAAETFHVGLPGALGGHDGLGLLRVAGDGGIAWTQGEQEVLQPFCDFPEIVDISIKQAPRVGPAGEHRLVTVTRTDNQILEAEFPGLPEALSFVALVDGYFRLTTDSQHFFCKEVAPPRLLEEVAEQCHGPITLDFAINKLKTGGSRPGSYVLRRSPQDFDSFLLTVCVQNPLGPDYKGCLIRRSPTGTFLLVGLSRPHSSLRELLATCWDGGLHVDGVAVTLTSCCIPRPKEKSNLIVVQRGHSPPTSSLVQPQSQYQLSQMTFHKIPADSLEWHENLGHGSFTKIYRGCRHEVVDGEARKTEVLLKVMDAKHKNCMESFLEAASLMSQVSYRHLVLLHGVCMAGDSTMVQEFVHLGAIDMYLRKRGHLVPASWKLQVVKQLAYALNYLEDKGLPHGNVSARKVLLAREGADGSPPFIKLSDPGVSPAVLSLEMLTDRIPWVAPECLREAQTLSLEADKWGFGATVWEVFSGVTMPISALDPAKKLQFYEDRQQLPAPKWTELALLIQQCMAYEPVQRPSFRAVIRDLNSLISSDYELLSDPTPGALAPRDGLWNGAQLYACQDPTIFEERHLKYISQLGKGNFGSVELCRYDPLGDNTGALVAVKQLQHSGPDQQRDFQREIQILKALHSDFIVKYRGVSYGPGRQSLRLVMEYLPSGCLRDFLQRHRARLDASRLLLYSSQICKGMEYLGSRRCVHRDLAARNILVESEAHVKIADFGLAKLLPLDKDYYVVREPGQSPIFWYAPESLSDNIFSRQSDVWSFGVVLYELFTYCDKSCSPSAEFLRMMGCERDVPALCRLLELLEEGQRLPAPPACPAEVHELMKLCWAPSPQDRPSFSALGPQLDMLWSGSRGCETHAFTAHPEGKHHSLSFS
Protocol: as §1, §2, §3

T1 sequence (Q06187 whole entry): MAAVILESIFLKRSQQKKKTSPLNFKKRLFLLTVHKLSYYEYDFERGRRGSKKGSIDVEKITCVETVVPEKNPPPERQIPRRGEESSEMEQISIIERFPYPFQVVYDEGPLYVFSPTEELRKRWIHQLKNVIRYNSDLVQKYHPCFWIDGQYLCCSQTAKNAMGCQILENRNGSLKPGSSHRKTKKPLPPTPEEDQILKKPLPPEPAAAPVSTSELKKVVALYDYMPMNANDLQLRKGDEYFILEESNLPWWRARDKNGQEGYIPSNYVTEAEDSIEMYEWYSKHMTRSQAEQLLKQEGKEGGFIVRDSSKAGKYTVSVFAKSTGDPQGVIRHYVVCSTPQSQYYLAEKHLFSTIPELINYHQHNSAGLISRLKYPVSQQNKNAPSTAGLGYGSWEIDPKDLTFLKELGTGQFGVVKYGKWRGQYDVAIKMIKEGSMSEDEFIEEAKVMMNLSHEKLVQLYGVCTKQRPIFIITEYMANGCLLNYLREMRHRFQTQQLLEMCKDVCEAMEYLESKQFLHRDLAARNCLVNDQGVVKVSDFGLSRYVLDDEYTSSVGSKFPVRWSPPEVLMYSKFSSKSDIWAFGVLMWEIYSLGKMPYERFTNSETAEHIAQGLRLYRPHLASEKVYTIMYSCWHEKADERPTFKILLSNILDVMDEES

Row | IC50 (BTK) | GI50 [1] | GI50 [2] | IC50 (JAK3) | GI50 ([1]; Homo sapiens, HCC827, 72 h) | GI50 ([2]; Homo sapiens) | Structure (SMILES)
1 | 50 to 100 nM | 50 to 100 nM | < 50 nM | 50 to 100 nM |  |  | C=CC(=O)Nc1cccc(Oc2nc(Nc3ccc(N4CC[C@@H](n5ccnc5)C4)cc3)nc3ccsc23)c1 [Example 36]
2 | ≤ 50 nM |  |  | 50 to 100 nM |  |  | C=CC(=O)Nc1cccc(Oc2nc(Nc3ccc(C(=O)N4CCN(C5CCN(C)CC5)CC4)cc3)nc3ccsc23)c1 [Example 91]
3 | 50 to 100 nM |  |  | 50 to 100 nM | < 50 nM | < 50 nM | C=CC(=O)Nc1cccc(Oc2nc(Nc3ccc(CS(C)(=O)=O)cc3)nc3ccsc23)c1 [Example 95]
4 | 50 to 100 nM |  |  | 50 to 100 nM |  |  | C=CC(=O)Nc1cccc(Oc2nc(Nc3ccc(C(=O)N4CCOCC4)cc3)nc3ccsc23)c1 [Example 88]
5 | 50 to 100 nM |  |  | 50 to 100 nM | < 50 nM | < 50 nM | C=CC(=O)Nc1cccc(Oc2nc(Nc3ccc(N4CCC(CN(C)C)CC4)cc3)nc3ccsc23)c1 [Example 41]
6 | ≤ 50 nM |  |  | 50 to 100 nM | < 50 nM | 100 to 1000 nM | C=CC(=O)Nc1cccc(Oc2nc(Nc3ccc(NC4CCN(C)CC4)cc3)nc3ccsc23)c1 [Example 59]
7 | ≤ 50 nM |  |  | ≤ 50 nM |  |  | C=CC(=O)Nc1cccc(Oc2nc(Nc3ccc(CN4CCC(N(C)C)C4)cc3)nc3ccsc23)c1 (stereo not drawn) [Example 177]
8 | ≤ 50 nM |  |  | 50 to 100 nM | < 50 nM | < 50 nM | C=CC(=O)Nc1cccc(Oc2nc(Nc3ccc(N4CCN(C)CC4)c(Cl)c3)nc3ccsc23)c1 [Example 7]
9 | 50 to 100 nM |  |  | ≤ 50 nM | < 50 nM | < 50 nM | C=CC(=O)Nc1cccc(Oc2nc(Nc3ccc(NC4CCN(C(C)C)CC4)c(F)c3)nc3ccsc23)c1 [Example 130]
10 | 50 to 100 nM |  |  | ≤ 50 nM | < 50 nM | < 50 nM | C=CC(=O)Nc1cccc(Oc2nc(Nc3ccc(C4CCCN(C)C4)cc3)nc3ccsc23)c1 (stereo not drawn) [Example 55]
11 | 50 to 100 nM |  |  | 50 to 100 nM | < 50 nM | 50 to 100 nM | C=CC(=O)Nc1cccc(Oc2nc(Nc3ccc(N4CCC(CO)CC4)cc3)nc3ccsc23)c1 [Example 40]
12 | 50 to 100 nM |  |  | ≤ 50 nM |  |  | C=CC(=O)Nc1cccc(Oc2nc(Nc3ccc([S+](C)[O-])cc3)nc3ccsc23)c1 (stereo not drawn) [Example 68]
13 | ≤ 50 nM |  |  | ≤ 50 nM | 50 to 100 nM | 50 to 100 nM | C=CC(=O)Nc1cccc(Oc2nc(Nc3ccc(CN4CCC(N(C)C)CC4)cc3)nc3ccoc23)c1 [Example 232]
14 | ≤ 50 nM |  |  | ≤ 50 nM | 50 to 100 nM | < 50 nM | C=CC(=O)Nc1cccc(Oc2nc(Nc3ccc(N4CC5CC4CN5C)cc3)nc3ccsc23)c1 (stereo not drawn) [Example 28]
15 | 50 to 100 nM |  |  | 50 to 100 nM | < 50 nM | < 50 nM | C=CC(=O)Nc1cccc(Oc2nc(Nc3ccc(C4CCN(C)CC4)c(F)c3)nc3ccsc23)c1 [Example 127]
16 | ≤ 50 nM |  |  | ≤ 50 nM | < 50 nM | 100 to 1000 nM | C=CC(=O)Nc1cccc(Oc2nc(Nc3ccc(C(=O)NCCN(C)C)cc3)nc3ccsc23)c1 [Example 79]
17 | ≤ 50 nM |  |  | 50 to 100 nM |  |  | C=CC(=O)Nc1cccc(Oc2nc(Nc3ccc(S(=O)(=O)NC4CCN(C)CC4)cc3)nc3ccsc23)c1 [Example 73]
18 | ≤ 50 nM |  |  | 50 to 100 nM |  |  | C=CC(=O)Nc1cccc(Oc2nc(Nc3ccc(S(=O)(=O)NC4CCN(C(C)C)CC4)cc3)nc3ccsc23)c1 [Example 74]

Row | IC50 (BTK) | GI50 [1] | GI50 [2] | IC50 (JAK3) | GI50 ([1]; Homo sapiens, HCC827, 72 h) | GI50 ([2]; Homo sapiens) | Structure (SMILES)
19 | ≤ 50 nM |  |  | ≤ 50 nM |  |  | C=CC(=O)Nc1cccc(Oc2nc(Nc3ccc(C(=O)NC4CCN(C)CC4)c(C)c3)nc3ccsc23)c1 [Example 145]
20 | 50 to 100 nM |  |  | 50 to 100 nM |  |  | C=CC(=O)Nc1cccc(Oc2nc(Nc3ccc(N4CCC(C(=O)O)CC4)cc3)nc3ccsc23)c1 [Example 44]
21 | ≤ 50 nM |  |  | 50 to 100 nM | < 50 nM | < 50 nM | C=CC(=O)Nc1cccc(Oc2nc(Nc3ccc(CN(CC)CC)cc3)nc3ccsc23)c1 [Example 174]
22 | ≤ 50 nM |  |  | 50 to 100 nM | 50 to 100 nM | 50 to 100 nM | C=CC(=O)Nc1cccc(Oc2nc(Nc3ccc(NC4CCN(C(C)C)CC4)nc3)nc3ccsc23)c1 [Example 154]
23 | ≤ 50 nM |  |  | ≤ 50 nM |  |  | C=CC(=O)Nc1cccc(Oc2nc(Nc3ccc(C4=NCCCN4)cc3)nc3ccsc23)c1 [Example 104]
24 | ≤ 50 nM |  |  | ≤ 50 nM |  |  | C=CC(=O)Nc1cccc(Oc2nc(Nc3ccc(CN4CCC(O)CC4)cc3)nc3ccsc23)c1 [Example 179]
25 | ≤ 50 nM |  |  | ≤ 50 nM | < 50 nM | < 50 nM | C=CC(=O)Nc1cccc(Oc2nc(Nc3ccc(S(=O)(=O)NCCN(C)C)cc3)nc3ccsc23)c1 [Example 72]
26 | ≤ 50 nM |  |  | ≤ 50 nM | 100 to 1000 nM | < 50 nM | C=CC(=O)Nc1cccc(Oc2nc(Nc3ccc(CC(=O)NC4CCN(C)CC4)cc3)nc3ccsc23)c1 [Example 103]
27 | ≤ 50 nM |  |  | ≤ 50 nM |  |  | C=CC(=O)Nc1cccc(Oc2nc(Nc3ccc(C(=O)N4CCC(NC)C4)cc3)nc3ccsc23)c1 (stereo not drawn) [Example 85]
28 | ≤ 50 nM |  |  | 50 to 100 nM |  |  | C=CC(=O)Nc1cccc(Oc2nc(Nc3ccc(C(=O)N4CCN(C)CC4)cc3)nc3ccsc23)c1 [Example 89]
29 | ≤ 50 nM |  |  | 50 to 100 nM | < 50 nM | 50 to 100 nM | C=CC(=O)Nc1cccc(Oc2nc(Nc3ccc(CN4CCN(C)CC4)nc3)nc3ccsc23)c1 [Example 169]
30 | ≤ 50 nM |  |  | ≤ 50 nM |  |  | C=CC(=O)Nc1cccc(Oc2nc(Nc3ccc(S(N)(=O)=O)cc3)nc3ccsc23)c1 [Example 70]
31 | ≤ 50 nM |  |  | 50 to 100 nM |  |  | C=CC(=O)Nc1cccc(Oc2nc(Nc3ccc(NC4CCN(C)CC4)c(Cl)c3)nc3ccsc23)c1 [Example 141]
32 | 50 to 100 nM |  |  | 50 to 100 nM |  |  | C=CC(=O)Nc1cccc(Oc2nc(Nc3ccc(N4CCN(C(C)C)CC4)nc3)nc3ccsc23)c1 [Example 146]
33 | ≤ 50 nM |  |  | 50 to 100 nM |  |  | C=CC(=O)Nc1cccc(Oc2nc(Nc3ccc(N4CCN(C(=O)CN(C)C)CC4)cc3)nc3ccsc23)c1 [Example 21]
34 | ≤ 50 nM |  |  | 50 to 100 nM |  |  | C=CC(=O)Nc1cccc(Oc2nc(Nc3ccc(N4CCC(N5CCCCC5)CC4)nc3)nc3ccsc23)c1 [Example 152]
35 | 50 to 100 nM |  |  | ≤ 50 nM |  |  | C=CC(=O)Nc1cccc(Oc2nc(Nc3ccc(C4C(=O)N(C)CCN4C)cc3)nc3ccsc23)c1 (stereo not drawn) [Example 105]
36 | 50 to 100 nM |  |  | 50 to 100 nM |  |  | C=CC(=O)Nc1cccc(Oc2nc(Nc3ccc(N4CCC(N5CCCC5)CC4)nc3)nc3ccsc23)c1 [Example 151]

Row | Structure (SMILES) | IC50 (BTK) | GI50 [1] | GI50 [2] | IC50 (JAK3) | GI50 ([1]; Homo sapiens, HCC827, 72 h) | GI50 ([2]; Homo sapiens)
37 | C=CC(=O)Nc1cccc(Oc2nc(Nc3ccc(P(=O)(OCC)OCC)cc3)nc3ccsc23)c1 [Example 67] | ≤ 50 nM |  |  | ≤ 50 nM |  | 
